Literature values, collected in patent US20240299410A1 (Woolsey Pharmaceuticals, Inc., priority 2022, published 2024).
Counter-ions that a name gives are not always drawn. Like-named read-outs stand apart in the source and are kept apart here.

How the values were obtained:
[1] = oral fasudil in drinking water; cited from earlier work
SOD mice = details: cited from earlier work; for motor function: presymptomatic SOD mice, 30 mg/kg in drinking water (Günther et al. 2014)
[2] = humans, intravenous administration, after an hour; cited from earlier work
human ALS patients = details: three ALS patients, 30 mg intravenously twice daily over 20 consecutive working days; cited from earlier work
[3] = male SOD mice, both 30 mg/kg and 100 mg/kg (Takata 2013)

Question: With O=S(=O)(c1cccc2c(O)nccc12)N1CCCNCC1 [M3, hydroxyfasudil] as the compound, how does the “M3 in male rats relative to female rats” value [1] read?
Answer: Its value is about 7 fold.

Question: For C[C@@H](N)[C@H]1CC[C@H](C(=O)Nc2ccncc2)CC1 [Y-27632], which motor function (SOD mice; female) is on record?
Answer: The motor function was “did not significantly improve motor function”.

Question: What about the motor function (SOD mice; male) of the same compound?
Answer: The motor function was “improved motor function”.

Question: Which results are given for O=S(=O)(c1cccc2cnccc12)N1CCCNCC1 [fasudil, Hexahydro-1-(5-isoquinolinesulfonyl)-1H-1,4-diazepine monohydrochloride hemihydrate]?
Answer: mixture of fasudil and M3 in CSF [2]: 50/50; motor behavior (SOD mice; male SOD mice, 30 mg/kg and 100 mg/kg beginning at disease onset (Günther 2017)): significantly improved motor behavior; survival time (SOD mice; [3]): prolonged survival time; symptom onset (motor performance, motor neuron loss) (SOD mice; [3]): delayed symptom onset; prolonging disease duration, 100 mg/kg versus 30 mg/kg (SOD mice; presymptomatic female SOD mice, oral (Tönges et al. 2013)): not as effective at prolonging disease duration as the lower dose; outcome of compassionate use treatment (human ALS patients): no conclusive results beyond safety
